“And” between values parts separate entries of the source, which are not always exact repeats. Equal values may be shown once.
What was measured:
human His6Gal-3 [1] = biological target: T1, human His6Gal-3 (Homo sapiens, UniProt P17931); test: Competitive inhibition of Gal-3 binding to immobilized asialofetuin (ASF), ELISA-type; details: for IC50: inhibition of Gal-3 binding to immobilized ASF (5 pmol), 1 h in PBS; for Relative Potency: from IC50, relative to free tetrasaccharide 6 (13 series) or 7 (14 series); for Relative Potency per Glycan: inhibitory potency per glycan, relative to 6 (13 series) or 7 (14 series)
T1 construct: made in house; host or cells: Escherichia coli Rosetta (DE3) pLysS
Method: Neo-glycoproteins 13b, 13d, 13e and 14b, 14d, 14e, as well as glycans 1, 2, 6 and 7 were used in a competitive inhibition assay. Asialofetuin (ASF, 5 pmol in PBS) as the standard glycoprotein was immobilized overnight in microtiter plates (MaxiSorp, Nunc). After blocking as described before, different concentrations of inhibitor and His6Gal-3 were simultaneously incubated for one hour in PBS. Residual bound galectin was detected as described above. Evaluation of the measured data was done using Sigma Plot. All assays were reproduced in at least three independent measurements.

human His6Gal-3 [2] = biological target: T1, human His6Gal-3; test: ELISA-type binding of Gal-3 to immobilized glycans and neo-glycoproteins; details: for Gal-3 binding to immobilized tetrasaccharide (in words): glycan (5 nmol) immobilized on aminoreactive surface; for selectivity for Gal-3 binding compared with Gal-1 (in words): immobilized glycans, 1 µM protein concentration
Method: (§1) The synthesized glycans and neo-glycoproteins were analyzed for binding of Gal-3 and Gal-1 in 96-well microtiter plate formats. Glycans 11 and 12, as well as the corresponding LacNAc-LacNAc-linker-NH2 1a and LacdiNAc-LacNAc-linker-NH2 2a (deprotected forms of 1 and 2) were immobilized via the amino group in aminoreactive microtiter plates (Immobilizer Amino, Nunc, Wiesbaden, Germany). The immobilization of 5 nmol glycan in sodium carbonate buffer (100 mM, pH 9.6) was done overnight. For immobilizing neo-glycoproteins, 5 pmol protein were incubated in PBS (pH 7.5) in MaxiSorp microtiter plates (Nunc) overnight. Wells were then washed with PBS-Tween (0.05% (v/v)) and blocked with 2% BSA in PBS followed by incubation for one hour with galectins diluted in EPBS. Incubation with anti-His6-peroxidase (Roche) was done subsequently. Microtiter plates were read out at 495 nm after conversion of OPD substrate (o-phenylenediamine, Dako, Hamburg, Germany). Measured data were analyzed using Sigma Plot (Systat software GmbH, Erkrath, Germany).

human His6Gal-1C2S = biological target: T2, human His6Gal-1C2S (Homo sapiens, UniProt P09382, C3S); test: ELISA-type binding of Gal-1 to immobilized glycans and neo-glycoproteins; details: 1 µM Gal-1, immobilized ligand 5 pmol per well
T2 construct: made in house; host or cells: Escherichia coli Rosetta (DE3) pLysS
Method: as §1

human His6Gal-3 [3] = biological target: T1, human His6Gal-3; test: Surface plasmon resonance with immobilized Gal-3; type: binding; details: SPR, ligand in flow (20 µL/min) over immobilized Gal-3, one concentration, fit with Scrubber2; read-out: Apparent KD
Method: SPR spectroscopy was done with Reichert SR7500DC System (XanTec bioanalytics, Düsseldorf, Germany) and carboxymethyldextran hydrogel sensor chips complexed with Ni^2+ ions (200M, XanTec bioanalytics). These surfaces allow reversible immobilization of His6-tagged proteins. Human His6Gal-3 (5 pmol in EPBS) was immobilized on the sample channel with a flowrate of 10 µL/min after 5 mM NiCl2 solution was injected. The reference channel stayed untreated.
The binding experiments were carried out with a flow rate of 20 µL/min by injecting neo-glycoproteins 13a–f and 14a–f (2 pmol in PBS) and recently synthesized neo-glycoproteins 15a–f and 16a–f (2 pmol in PBS), as well as BSA and ASF as the control. The dissociation time was three minutes. Between the measurements, the surface was regenerated with 0.5 M Na EDTA (pH 8.5) to remove Ni^2+ together with Gal-3. Each cycle started with NiCl2 followed by Gal-3 application.
The measured data were subtracted by reference values and analyzed using Integrated SPRAutolink (Reichert technologies, Depew, NY, USA) and Scrubber2 (version 2.0c, BioLogic Software, Campbell ACT, Australia).

T1 sequence (P17931 whole entry): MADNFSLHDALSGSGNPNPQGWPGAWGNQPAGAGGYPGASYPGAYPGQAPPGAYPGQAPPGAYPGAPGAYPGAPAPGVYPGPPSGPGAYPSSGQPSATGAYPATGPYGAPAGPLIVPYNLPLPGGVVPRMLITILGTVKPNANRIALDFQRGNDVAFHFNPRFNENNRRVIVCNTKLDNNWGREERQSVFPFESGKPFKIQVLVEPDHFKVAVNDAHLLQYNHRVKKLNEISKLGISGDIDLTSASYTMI
T2 sequence (P09382 whole entry C3S): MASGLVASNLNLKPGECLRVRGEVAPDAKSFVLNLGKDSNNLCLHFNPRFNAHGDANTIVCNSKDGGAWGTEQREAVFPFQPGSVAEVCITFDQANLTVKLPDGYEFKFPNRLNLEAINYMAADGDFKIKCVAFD

## CC(=O)N[C@@H]1[C@@H](O)[C@H](O[C@@H]2O[C@H](CO)[C@H](O)[C@H](O[C@@H]3O[C@H](CO)[C@@H](O[C@@H]4O[C@H](CO)[C@H](O)[C@H](O)[C@H]4O)[C@H](O)[C@H]3NC(C)=O)[C@H]2O)[C@@H](CO)O[C@H]1NC(=S)NCCNC(=O)OC(C)(C)C [Compound 1, LacNAc-LacNAc-linker-NH2-tBoc]
Human His6Gal-3 [1]
  IC50: 14 µM

## CC(=O)N[C@@H]1[C@@H](O)[C@H](O[C@@H]2O[C@H](CO)[C@H](O)[C@H](O[C@@H]3O[C@H](CO)[C@@H](O[C@@H]4O[C@H](CO)[C@H](O)[C@H](O)[C@H]4NC(C)=O)[C@H](O)[C@H]3NC(C)=O)[C@H]2O)[C@@H](CO)O[C@H]1NC(=S)NCCNC(=O)OC(C)(C)C [Compound 2, LacdiNAc-LacNAc-linker-NH2-tBoc]
Human His6Gal-3 [1]
  IC50: ~8 µM

## CC(=O)N[C@@H]1[C@@H](O)[C@H](O[C@@H]2O[C@H](CO)[C@H](O)[C@H](O[C@@H]3O[C@H](CO)[C@@H](O[C@@H]4O[C@H](CNNC(=O)CCCCCNC(=O)CCCC[C@@H]5SCC6NC(=O)NC65)[C@H](O)[C@H](O)[C@H]4O)[C@H](O)[C@H]3NC(C)=O)[C@H]2O)[C@@H](CO)O[C@H]1NC(=S)NCCNC(=O)OC(C)(C)C (some centres unmarked) [Compound 6, 6-biotin LacNAc-LacNAc-linker-NH2-tBoc]
Human His6Gal-3 [1]
  Relative Potency: 1.0 ± 0.1
  IC50: 14 µM and 14.8 µM
  Relative Potency per Glycan: 1.0 ± 0.1

## CC(=O)N[C@@H]1[C@@H](O)[C@H](O[C@@H]2O[C@H](CO)[C@H](O)[C@H](O[C@@H]3O[C@H](CO)[C@@H](O[C@@H]4O[C@H](CNNC(=O)CCCCCNC(=O)CCCC[C@@H]5SCC6NC(=O)NC65)[C@H](O)[C@H](O)[C@H]4NC(C)=O)[C@H](O)[C@H]3NC(C)=O)[C@H]2O)[C@@H](CO)O[C@H]1NC(=S)NCCNC(=O)OC(C)(C)C (some centres unmarked) [Compound 7, 6-biotin LacdiNAc-LacNAc-linker-NH2-tBoc]
Human His6Gal-3 [1]
  Relative Potency: 1.0 ± 0.2
  IC50: 7.66 ± 1.24 µM
  Relative Potency per Glycan: 1.0 ± 0.2

## CC(=O)N[C@@H]1[C@@H](O)[C@H](O[C@@H]2O[C@H](CO)[C@H](O)[C@H](O[C@@H]3O[C@H](CO)[C@@H](O[C@@H]4O[C@H](CNNC(=O)CCCCCNC(=O)CCCC[C@@H]5SCC6NC(=O)NC65)[C@H](O)[C@H](O)[C@H]4O)[C@H](O)[C@H]3NC(C)=O)[C@H]2O)[C@@H](CO)O[C@H]1NC(=S)NCCN (some centres unmarked) [Compound 8]
Human His6Gal-3 [2]
  Gal-3 binding to immobilized tetrasaccharide (in words): high binding signals
  selectivity for Gal-3 binding compared with Gal-1 (in words): high selectivity

## CC(=O)N[C@@H]1[C@@H](O)[C@H](O[C@@H]2O[C@H](CO)[C@H](O)[C@H](O[C@@H]3O[C@H](CO)[C@@H](O[C@@H]4O[C@H](CNNC(=O)CCCCCNC(=O)CCCC[C@@H]5SCC6NC(=O)NC65)[C@H](O)[C@H](O)[C@H]4NC(C)=O)[C@H](O)[C@H]3NC(C)=O)[C@H]2O)[C@@H](CO)O[C@H]1NC(=S)NCCN (some centres unmarked) [Compound 9]
Human His6Gal-3 [2]
  Gal-3 binding to immobilized tetrasaccharide (in words): highest binding
  selectivity for Gal-3 binding compared with Gal-1 (in words): high selectivity

## ASF: Asialofetuin, standard glycoprotein having nine N-glycosidic bound LacNAc units [reference compound]
Human His6Gal-3 [2]; 1 µM Gal-3, immobilized ligand 5 pmol per well
  Binding signal Galectin-3: 0.38 ± 0.10
Human His6Gal-3 [2]; Gal-3 concentration at half-maximal binding to immobilized ligand (5 pmol), one site saturation fit, read-out: Apparent Kd
  Kd: 1.26 ± 0.25 µM
Human His6Gal-3 [2]; from apparent Kd, in relation to ASF
  Relative Potency: 1.00 ± 0.20
Human His6Gal-3 [2]; from apparent Kd, in relation to ASF, per glycan
  Relative Potency per Glycan: 0.11 ± 0.02
Human His6Gal-1C2S
  Binding signal Galectin-1: 0.40 ± 0.07
Human His6Gal-3 [3]
  Kd: 0.075 ± 0.002 µM

## LacNAc-LacNAc-linker-NH2 [Compound 1a]
Human His6Gal-3 [2]
  Gal-3 binding to immobilized tetrasaccharide (in words): rather weak

## LacdiNAc-LacNAc-linker-NH2 [Compound 2a]
Human His6Gal-3 [2]
  Gal-3 binding to immobilized tetrasaccharide (in words): essentially no binding

Source: paper PMC5590477, “Biotinylated N-Acetyllactosamine- and N,N-Diacetyllactosamine-Based Oligosaccharides as Novel Ligands for Human Galectin-3” (Bioengineering, 2017)
